From patent US6828450B2, “Triptycene analogs” (Kansas State University Research Foundation, priority 2000, dated 2004)
pIC50: −log10 of the molar value. Several values for one entry are separate records, joined by “and”; a condition that tells them apart may be missing. Equal values may be shown once. Read-outs that look alike come from different tables or passages of the source. Values belong to the compound of their own block, whether it stands above or below them.

Legend:
[1] = tested on: L1210 cells; assay: RNA synthesis (3H-uridine incorporation) in L1210 cells; type: cell-based, murine
Procedure: FIG. 16. Comparison of the concentration-dependent inhibitions of RNA synthesis by the TT analog TT2 (●) and DAU (∘) in L1210 cells in vitro. […] RNA synthesis in vehicle-treated control cells was 47,117±3,204 cpm (100±7%; striped area). The blank value (1,746±155 cpm) for cells incubated and pulse-labeled at 2° C. with 2 μCi of ^3H-uridine has been substracted from the results.
Except when otherwise specified, the cells were incubated at 37° C. for 90 min in the presence or absence of drugs and then pulse-labeled for an additional 30 min with 1 μCi of [methyl-^3H]thymidine (50 Ci/mmol; Amersham Corp., Arlington Heights, Ill.) to estimate the rate of DNA synthesis. […] After drying the filters, the radioactivity bound to the acid-precipitable material was determined by liquid scintillation counting (LSC) in 10 ml of Bio-Safe NA (Researeh Products International Corp., Mount Prospect, Ill.).

[2] = tested on: HL-60-R8 cells; assay: Nucleoside transport in HL-60-R8 cells; type: cell-based, human; settings: 15-min preincubation, 30 s
From the text: FIG. 15. Comparison of the concentration-dependent inhibitions of the cellular transport of purine (A) and pyrimidine (B) nucleosides by DAU (open symbols) and TT2 (closed symbols) in HL-60-S (circles), HL-60-RV (squares) and HL-60-R8 (triangles) cells in vitro. Results are expressed as % of ^3H-adenosine (26,032±2,239 cpm, 100±9%, striped area in A) and ^3H-thymidine (17,934±1,398 cpm, 100±8%, striped area in B) transported into vehicle-treated control cells over 30 s.
The MDR HL-60-RV and HL-60-R8 cells were developed in Melvin S. Center's laboratory (Kansas State University) and similarly maintained in RPMI 1640 medium in the absence of drugs (Marsh W, et al, Cancer Res 46: 4053-4057, 1986; McGrath T et al, and Center M S: Biochem Biophys Res Commun 145: 1171-1176, 1987; Marsh W and Center M S: Cancer Res 47: 5080-5086, 1987; McGrath T, et al, Biochem Pharmacol 38: 3611-3619, 1989; Marquardt D, et al, Cancer Res 50: 1426-1430, 1990; Marquardt D and Center M S: J Natl Cancer Inst 83: 1089-1109, 1991; Krishnamachary N and Center M S; Cancer Res 53: 3658-3661, 1993). Every 4 weeks, these HL-60-RV and HL-60-R8 sublines were exposed to 41 nM DAU for 48 h to stabilize their MDR phenotype. […] RFs were determined by dividing the IC50 of the MDR cells by that of the sensitive WT parent cell line. […]

[3] = target: Malaria protease plasmepsin II (Plasmodium falciparum, UniProt P46925); assay: Inhibition of malaria protease plasmepsin II; type: biochemical
Sequence of Malaria protease plasmepsin II (P46925 125-453): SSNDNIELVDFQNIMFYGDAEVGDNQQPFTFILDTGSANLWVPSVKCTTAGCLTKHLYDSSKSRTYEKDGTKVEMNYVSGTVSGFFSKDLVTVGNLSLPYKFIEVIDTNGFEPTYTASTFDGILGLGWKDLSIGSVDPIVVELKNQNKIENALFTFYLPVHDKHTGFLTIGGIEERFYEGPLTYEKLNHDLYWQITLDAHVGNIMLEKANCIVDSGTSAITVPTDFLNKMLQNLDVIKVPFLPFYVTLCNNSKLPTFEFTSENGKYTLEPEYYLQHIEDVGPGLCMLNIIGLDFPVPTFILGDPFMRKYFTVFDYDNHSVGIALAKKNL

Compound: COc1cccc2c1C(=O)c1c(O)c3c(c(O)c1C2=O)C[C@@](O)(C(C)=O)C[C@@H]3O[C@H]1C[C@H](N)[C@H](O)[C@H](C)O1 [DAU, daunomycin, reference compound]
times DAU inhibits RNA synthesis more effectively than TT2 ([1]; L1210): about 7.5 times

pIC50 ([1]; 3 h drug + 1 h pulse-labeling, read-out: IC50, inhibition of RNA synthesis in L1210 cells): 5.22 and ~5.22
pIC50 ([2]; purine nucleoside, read-out: IC50, cellular transport of 3H-adenosine in HL-60-R8 cells): 5.43
pIC50 ([2]; pyrimidine nucleoside, read-out: IC50, cellular transport of 3H-thymidine in HL-60-R8 cells): 5.64
Compound: COC1=CC(=O)C2=C(C1=O)C1C3=C(C(=O)C=CC3=O)C2c2ccccc21 (centres unmarked) [TT2, 2-Methoxy-9,10-dihydro-9,10-[1′,2′]benzenoanthracene-1,4,5,8-tetraone]

pIC50 [3]: 4.63
Compound: COC1=C(Br)C(=O)C2=C(C1=O)C1C3=C(C(=O)C=C(N(C)C)C3=O)C2c2ccccc21 (centres unmarked) [TT16, 2-Bromo-3-methoxy-6-(dimethylamino)-9,10-dihydro-9,10-[1′,2′]benzenoanthracene-1,4,5,8-tetraone]
